Where “and” joins values, the source holds several entries; their conditions need not be identical. Identical values can stand only once.
Columns and labels:
[1] = xn = mol fraction of the nth substance listed; conditions: 101 kPa, Liquid; for speed of sound: Pulse-echo method
[2] = refractive index (Na D-line) (dimensionless); xn = mol fraction of the nth substance listed; conditions: 101 kPa, Liquid, Standard Abbe refractometry
[3] = 101 kPa, Liquid; for speed of sound: Pulse-echo method
[4] = refractive index (Na D-line) (dimensionless); conditions: 101.33 kPa, Liquid, Standard Abbe refractometry

CN1CCCC1=O [N-methylpyrrolidone] + NCCO
x1 = 1
Conditions	mass density, [1] [kg/m3]	refractive index, [2]	speed of sound, [1] [m/s]	viscosity, [1] [mPa·s]
293.15 K	1032.87	1.4691	1565.3	1.858
303.15 K	1023.95	1.4647	1526.5	1.553
313.15 K	1015.03	1.4603	1487.8	1.324
323.15 K	1006.1	1.4559	1450.2	1.146

NCCO [2-aminoethan-1-ol]
Conditions	mass density, [3] [kg/m3]	refractive index, [4]	speed of sound, [3] [m/s]	viscosity, [3] [mPa·s]
293.15 K	1016.65	1.4525	1735.9	24.61
303.15 K	1008.74	1.4488	1703.7	14.96
313.15 K	1000.77	1.4449	1671.2	9.839
323.15 K	992.75	1.4417	1638.8	6.902

CCO [ethanol] + CN1CCCC1=O
x2 = 0
Conditions	mass density, [1] [kg/m3]	refractive index, [2]	speed of sound, [1] [m/s]	viscosity, [1] [mPa·s]
293.15 K	789.54	1.3616	1162.3	1.116
303.15 K	780.94	1.3574	1128.9	0.9502
313.15 K	772.2	1.3532	1095.4	0.7899
323.15 K	763.29	1.3493	1071.9	0.6304

CCO [ethanol]
Conditions	mass density, [3] [kg/m3]	refractive index, [4]	speed of sound, [3] [m/s]	viscosity, [3] [mPa·s]
293.15 K	789.54	1.3616	1162.3	1.116
303.15 K	780.94	1.3574	1128.9	0.9502
313.15 K	772.2	1.3532	1095.4	0.7899
323.15 K	763.29	1.3493	1071.9	0.6304

CN1CCCC1=O [N-methylpyrrolidone]
Conditions	mass density, [3] [kg/m3]	refractive index, [4]	speed of sound, [3] [m/s]	viscosity, [3] [mPa·s]
293.15 K	1032.87	1.4706 and 1.4691	1565.3	1.858
303.15 K	1023.95	1.4664 and 1.4647	1526.5	1.553
313.15 K	1015.03	1.4621 and 1.4603	1487.8	1.324
323.15 K	1006.1	1.4576 and 1.4559	1450.2	1.146
